Source: PMC5740388, “In Vitro Antibacterial Properties of Cefiderocol, a Novel Siderophore Cephalosporin, against Gram-Negative Bacteria” (Antimicrobial Agents and Chemotherapy, 2017)
Where two headings read alike, the source gives them in different places.

How the values were obtained:
Assay in all cases: competition with […]benzylpenicillin for PBPs
Assay type in all cases: binding
[1] = biological target: T1, PBP3 of K. pneumoniae SR22291 (Klebsiella pneumoniae, UniProt A0A0H3GN85); settings: covalent
T1 construct: gene ftsI
T1 sequence (A0A0H3GN85 1-588): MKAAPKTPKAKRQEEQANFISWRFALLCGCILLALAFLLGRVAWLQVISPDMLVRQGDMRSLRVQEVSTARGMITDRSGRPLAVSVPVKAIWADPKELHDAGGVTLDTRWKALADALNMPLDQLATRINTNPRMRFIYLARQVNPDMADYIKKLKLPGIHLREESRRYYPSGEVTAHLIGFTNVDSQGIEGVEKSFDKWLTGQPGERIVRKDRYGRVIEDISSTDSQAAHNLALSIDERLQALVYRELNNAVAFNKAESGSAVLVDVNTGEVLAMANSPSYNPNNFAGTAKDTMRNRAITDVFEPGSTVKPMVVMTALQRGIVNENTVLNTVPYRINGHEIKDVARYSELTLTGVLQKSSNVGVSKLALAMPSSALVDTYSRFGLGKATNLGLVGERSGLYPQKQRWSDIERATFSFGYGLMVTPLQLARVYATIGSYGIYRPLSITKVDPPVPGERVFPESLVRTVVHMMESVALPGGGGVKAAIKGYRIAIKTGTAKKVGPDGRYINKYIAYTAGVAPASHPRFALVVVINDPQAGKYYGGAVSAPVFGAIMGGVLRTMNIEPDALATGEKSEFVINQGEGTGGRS

[2] = biological target: T2, PBP1b of K. pneumoniae SR22291 (Klebsiella pneumoniae, UniProt A0ACD7TXF1); settings: covalent
T2 construct: gene mrcB
T2 sequence (A0ACD7TXF1 1-850): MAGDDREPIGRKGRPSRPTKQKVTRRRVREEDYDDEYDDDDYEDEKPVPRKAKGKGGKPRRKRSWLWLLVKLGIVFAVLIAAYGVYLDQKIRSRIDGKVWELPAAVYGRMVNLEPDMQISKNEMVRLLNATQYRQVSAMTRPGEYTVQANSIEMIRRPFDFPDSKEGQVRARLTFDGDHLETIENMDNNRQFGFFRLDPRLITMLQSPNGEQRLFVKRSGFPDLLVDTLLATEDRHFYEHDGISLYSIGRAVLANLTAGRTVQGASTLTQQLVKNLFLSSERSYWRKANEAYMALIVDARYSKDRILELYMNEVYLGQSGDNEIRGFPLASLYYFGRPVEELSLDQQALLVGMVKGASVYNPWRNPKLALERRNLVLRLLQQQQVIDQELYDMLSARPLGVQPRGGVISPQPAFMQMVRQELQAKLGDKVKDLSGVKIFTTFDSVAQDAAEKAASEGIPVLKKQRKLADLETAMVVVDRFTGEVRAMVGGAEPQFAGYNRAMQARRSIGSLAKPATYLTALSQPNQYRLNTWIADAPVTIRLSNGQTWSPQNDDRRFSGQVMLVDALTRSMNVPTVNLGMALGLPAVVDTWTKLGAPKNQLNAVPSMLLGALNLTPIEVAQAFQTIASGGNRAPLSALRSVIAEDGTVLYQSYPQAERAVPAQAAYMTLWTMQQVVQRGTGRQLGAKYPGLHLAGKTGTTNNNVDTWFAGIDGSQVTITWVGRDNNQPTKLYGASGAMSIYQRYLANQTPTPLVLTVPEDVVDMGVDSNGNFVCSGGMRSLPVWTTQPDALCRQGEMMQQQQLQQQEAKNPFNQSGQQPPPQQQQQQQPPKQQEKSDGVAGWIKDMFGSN

[3] = biological target: T3, PBP2 of P. aeruginosa ATCC 27853 (Pseudomonas aeruginosa, UniProt Q9X6V3); settings: covalent; read-out: IC50 (μg/ml) / E. coli NIHJ JC-2 / Ceftazidime
T3 construct: gene pbpA
T3 sequence (Q9X6V3 1-646): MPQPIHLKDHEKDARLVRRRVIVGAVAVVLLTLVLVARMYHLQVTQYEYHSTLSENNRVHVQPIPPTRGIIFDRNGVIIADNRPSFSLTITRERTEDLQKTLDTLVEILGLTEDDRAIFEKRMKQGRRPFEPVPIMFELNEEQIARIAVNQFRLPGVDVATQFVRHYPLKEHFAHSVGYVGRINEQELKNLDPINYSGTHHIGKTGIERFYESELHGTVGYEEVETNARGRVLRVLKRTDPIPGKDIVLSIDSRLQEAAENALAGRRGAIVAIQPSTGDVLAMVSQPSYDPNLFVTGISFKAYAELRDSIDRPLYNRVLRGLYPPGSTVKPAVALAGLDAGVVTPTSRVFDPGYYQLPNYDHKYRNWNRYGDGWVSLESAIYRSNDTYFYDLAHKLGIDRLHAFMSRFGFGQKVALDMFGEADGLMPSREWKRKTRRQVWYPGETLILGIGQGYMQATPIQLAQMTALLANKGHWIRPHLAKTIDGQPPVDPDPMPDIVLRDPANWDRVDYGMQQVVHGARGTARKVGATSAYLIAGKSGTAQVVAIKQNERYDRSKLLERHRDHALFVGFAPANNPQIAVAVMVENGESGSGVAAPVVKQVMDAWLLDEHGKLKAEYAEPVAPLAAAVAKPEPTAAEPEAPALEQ

[4] = biological target: T4, PBP4 of E. coli NIHJ JC-2 (Escherichia coli, UniProt P24228); settings: read-out: % inhibition at 4 μg/ml
T4 construct: gene dacB

[5] = biological target: T4, PBP4 of E. coli NIHJ JC-2; settings: covalent; read-out: IC50 (μg/ml) / E. coli NIHJ JC-2 / Ceftazidime
[6] = read-out: IC50 (μg/ml) / K. pneumoniae SR22291 / Cefiderocol (converted)
[7] = read-out: IC50 (μg/ml) / K. pneumoniae SR22291 / Ceftazidime (converted)

| SMILES | IC50 [1, 6] [nM] | IC50 [2, 6] [µM] | IC50 [3] [µM] | inhibition at 4 µg/mL [4] [%] | IC50 [1, 7] [nM] | IC50 [2, 7] [µM] | IC50 [5] [nM] |
| --- | --- | --- | --- | --- | --- | --- | --- |
| CC(C)(O/N=C(\C(=O)N[C@@H]1C(=O)N2C(C(=O)[O-])=C(C[N+]3(CCNC(=O)c4ccc(O)c(O)c4Cl)CCCC3)CS[C@H]12)c1csc(N)n1)C(=O)O [cefiderocol] | 82.4 | 4.65 | > 5.32 | 63 |  |  |  |
| CC(C)(O/N=C(\C(=O)N[C@@H]1C(=O)N2C(C(=O)[O-])=C(C[n+]3ccccc3)CS[C@H]12)c1csc(N)n1)C(=O)O [ceftazidime] |  |  | > 7.32 |  | 402 | 4.21 | > 1830 |
